Source: ChEMBL document CHEMBL1129382, “Synthesis of chiral 1-(2'-amino-2'-carboxyethyl)-1,4-dihydro-6,7-quinoxaline-2,3-diones: alpha-amino-3-hydroxy-5-methyl-4-isoxazolepropionate receptor agonists and antagonists” (J Med Chem, 1996)

Tests used:
[1] = molecular target: Glutamate receptor ionotropic, kainate; experiment: Inhibition of [3H]- Kainate binding to Ionotropic glutamate receptor kainate in brain homogenates.; assay type: tissue-based, Rattus norvegicus
[2] = molecular target: Glutamate receptor ionotropic, kainate (Rattus norvegicus) (UniProt P22756+Q01812+P42260+P42264+Q63273); experiment: Displacement of [3H]- Kainate from Ionotropic glutamate receptor kainate of rat brain homogenates.; assay type: tissue-based; design: concentration or dose not given beside the values; conditions: concentration not given here
[3] = molecular target: Glutamate receptor ionotropic, AMPA (Rattus norvegicus) (UniProt P19491+P19492+P19493+P19490); experiment: Displacement of [3H]- AMPA from Ionotropic glutamate receptor of rat brain; design: concentration or dose not given beside the values; conditions: concentration not given here
[4] = molecular target: Glutamate receptor ionotropic, AMPA (Rattus norvegicus, UniProt P19490+P19491+P19492+P19493); experiment: Compound (100 uM) was evaluated for inhibition of Ionotropic glutamate receptor AMPA by using [3H]- AMPA; assay type: protein-complex assay
[5] = organism: Rattus norvegicus; experiment: Functional antagonist activity was determined by the ability to inhibit AMPA stimulated [3H]norepinephrine release from rat hippocampal slices.; conditions: Hippocampus

Row | IC50 [1] | inhibition [2] | inhibition [3] | IC50 [4] | EC50 [5] | Structure (SMILES)
1 | 38 µM |  |  |  |  | N[C@H](Cn1c(=O)c(=O)[nH]c2ccccc21)C(=O)O [listing 1 of 3 here]
2 |  | 5% | 11% |  |  | N[C@H]1COC1=O
3 | 11 µM |  |  | 12 µM |  | Cc1cc2[nH]c(=O)c(=O)n(C(=O)[C@@H](CO)NC(=O)OC(C)(C)C)c2cc1C
4 |  | 0% | 0% |  |  | Nc1ccccc1NC[C@@H](N)C(=O)O
5 | 51 µM | 38% | 66% |  | 290 µM | Cc1cc2[nH]c(=O)c(=O)n(C[C@H](N)C(=O)O)c2cc1C
6 | 0.74 µM |  |  |  |  | O=c1[nH]c2cc([N+](=O)[O-])c([N+](=O)[O-])cc2[nH]c1=O [DNQX]
7 |  | 0% | 15% |  |  | Cc1cc(N)c(NC[C@@H](N)C(=O)O)cc1C
8 | 11 µM |  |  | 4 µM |  | Cc1cc(N)c(NC(=O)[C@@H](CO)NC(=O)OC(C)(C)C)cc1C
9 | 5 µM |  |  | 47 µM |  | Cc1cc2[nH]c(=O)c(=O)n(C[C@H](CO)NC(=O)OC(C)(C)C)c2cc1C
10 | 0.69 µM |  |  |  |  | N[C@H](Cn1c(=O)c(=O)[nH]c2ccccc21)C(=O)O [listing 2 of 3 here]
11 | 0.23 µM | 27% | 95% |  |  | N[C@@H](Cn1c(=O)c(=O)[nH]c2ccccc21)C(=O)O
12 |  | 7% | 15% |  |  | Cc1cc(N)c(NC[C@H](N)C(=O)O)cc1C
13 |  | 4% | 0% |  |  | N[C@@H]1COC1=O
14 |  | 5% | 77% |  |  | N[C@H](Cn1c(=O)c(=O)[nH]c2ccccc21)C(=O)O [listing 3 of 3 here]
15 |  | 81% | 99% |  |  | O=[N+]([O-])c1cc2nc(O)c(O)nc2cc1[N+](=O)[O-]
16 |  | 14% | 70% |  |  | Nc1ccccc1NC[C@H](N)C(=O)O
17 | 22 µM | 27% | 62% |  | 300 µM | Cc1cc2[nH]c(=O)c(=O)n(C[C@@H](N)C(=O)O)c2cc1C

Row | Structure (SMILES) | IC50 [1] | inhibition [2] | inhibition [3] | IC50 [4] | EC50 [5]
18 | Cc1cc2[nH]c(=O)c(=O)n(C(=O)[C@@H](N)CO)c2cc1C |  | 16% | 24% |  | 
19 | Cc1cc2[nH]c(=O)c(=O)n(C(=O)[C@H](N)CO)c2cc1C |  | 15% | 14% |  | 
20 | Cc1cc2[nH]c(=O)n(C(=O)[C@@H](N)CO)c2cc1C |  | 13% | 21% |  | 
